From PMC5591945, “Novel Protein-Protein Inhibitor Based Approach to Control Plant Ethylene Responses: Synthetic Peptides for Ripening Control” (Frontiers in Plant Science, 2017)

T1: tomato ethylene receptor NR (NeverRipe) (tomato (Solanum lycopersicum), UniProt Q41341 1-635, labeled with Alexa Fluor 488-Maleimide)
T1 construct: Tomato ethylene receptor NR (NeverRipe), full-length codon optimized cDNA in pET16b; pET16b normally adds the deca-histidine tag and a factor Xa site at the N-terminus (surmised); Kept in 0.015% FosCholine-16; source: E. coli BL21 (DE3), solubilized with FosCholine-16, purified (HisTrap FF / Ni-NTA)
T1 sequence (looked up): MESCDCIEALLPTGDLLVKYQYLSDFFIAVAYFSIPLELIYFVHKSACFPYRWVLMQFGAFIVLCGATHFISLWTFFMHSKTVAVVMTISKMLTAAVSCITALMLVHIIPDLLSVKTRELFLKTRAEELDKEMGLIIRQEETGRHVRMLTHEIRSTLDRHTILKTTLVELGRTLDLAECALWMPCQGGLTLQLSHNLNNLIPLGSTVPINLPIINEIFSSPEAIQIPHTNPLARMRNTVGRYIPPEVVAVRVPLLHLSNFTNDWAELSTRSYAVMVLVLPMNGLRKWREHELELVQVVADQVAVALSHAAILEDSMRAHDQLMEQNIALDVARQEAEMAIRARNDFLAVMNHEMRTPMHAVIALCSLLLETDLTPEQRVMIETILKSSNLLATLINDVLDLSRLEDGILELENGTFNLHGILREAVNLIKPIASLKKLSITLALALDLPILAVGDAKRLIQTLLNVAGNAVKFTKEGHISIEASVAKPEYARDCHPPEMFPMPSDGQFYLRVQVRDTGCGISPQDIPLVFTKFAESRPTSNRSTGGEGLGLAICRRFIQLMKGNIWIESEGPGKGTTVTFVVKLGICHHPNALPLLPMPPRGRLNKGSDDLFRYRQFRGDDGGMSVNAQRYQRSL


How the values were obtained:
[1] = system: Tomato fruits (Solanum lycopersicum L.) of the cultivar ‘Lyterno’; settings: in vivo
Excerpt: Tomato fruits (Solanum lycopersicum L.) of the cultivar ‘Lyterno’ (Rijk Zwaan, De Lier, Netherlands) were harvested at the maturity stage “green” (USDA; 2005) from tomato plants which where cultivated in a commercial-like greenhouse at the research station Campus Klein-Altendorf (University of Bonn, Germany). At the early development stages, the trusses were manually thinned to six fruits per truss, according to the common practice aiming standardized fruit size and quality. For the experiment, the last two fruits of the fourth truss, counted from the bottom, were chosen for evaluations. At the beginning of the experiment, […] showing similar color and size were divided into four treatments (n = 25 fruits per treatment). On each fruit, a transparent polyethylene film was placed at the equatorial zone to demark the four evaluation points of 2.8 cm diameter each.
The four treatments were as follows: (1) control; (2) NOP-1, 400 μM; (3) NOP-1, 1000 μM; (4) NOP-1, 2000 μM. The NOP-1 peptide (GenScript, Piscataway, NJ, United States) was dissolved in 5 ml deionized water. On each fruit, a total of 200 microdroplets (0.5 μL each) of the peptide solution were gently deposited (50 micro droplets on each marked area of the tomato fruit) with a Hamilton microdispenser (Hamilton Bonaduz AG, Bonaduz, Switzerland). […]

tomato fruits = settings: 2007, cited from earlier work; for ripening, lycopene synthesis and chlorophyll breakdown: AVG inhibits ethylene biosynthesis, 1-MCP inhibits ethylene response, ref Saltveit, 2005, Passam et al.; for drawbacks on fruit quality and maturation: in some cases, ref Passam et al.
Excerpt: Improving shelf life and nutritional quality of tomato fruits is difficult to achieve with the methods currently in use. Maintaining adequate storage conditions is expensive and might cause chilling injury if used improperly ([[…] et al., 2007]). Even though genetic modifications reducing gene expression of proteins involved in ethylene synthesis are possible in principle ([Abano and Buah, 2015]) these procedures are banned by law throughout Europe and have low acceptance among European consumers. Chemical methods such as application of AVG to inhibit ethylene biosynthesis or treatment with ...

[2] = target: tomato ethylene receptor LeETR4 (tomato (Solanum lycopersicum)) (UniProt Q9XET8); experiment: MST; 100 nM receptor labeled with Alexa Fluor 488-Maleimide titrated with unlabeled NOP-1 (500 μM to 61.04 nM) in 50 mM Tris-HCl pH 8.0, 300 mM NaCl; Monolith NT.115, 20% MST power (LeETR4) or 60% (NR); triplicate; apparent Kd
[3] = target: T1, tomato ethylene receptor NR (NeverRipe); experiment: as above; settings: both partners purified

effect on fruit quality [1] | Kd [2] [µM] | Kd [3] [µM] | Molecule | ripening, lycopene synthesis and chlorophyll breakdown (tomato fruits) | drawbacks on fruit quality and maturation (tomato fruits)
no negative effects on fruit quality | – | – | CC(C)C[C@H](NC(=O)[C@H](CCCNC(=N)N)NC(=O)[C@H](CCCNC(=N)N)NC(=O)[C@H](CCCCN)NC(=O)[C@H](Cc1ccc(O)cc1)NC(=O)[C@H](CCCNC(=N)N)NC(=O)[C@H](CCCCN)NC(=O)[C@@H](N)CC(C)C)C(=O)O [NOP-1] | – | –
– | – | – | NCCO/C=C/[C@H](N)C(=O)O [AVG, aminoethoxyvinylglycine] | significantly delay ripening and slow down lycopene synthesis and chlorophyll breakdown | quality losses in taste development or to complete arrest in maturation
– | – | – | CC1=CC1 [1-MCP, 1-methylcyclopropene] | significantly delay ripening and slow down lycopene synthesis and chlorophyll breakdown | quality losses in taste development or to complete arrest in maturation
– | 4.15 | 23.5 | LKRYKRRL (Used unlabeled in MST; also called NLS-derived peptide; source: synthetic peptide (GenScript)) [NOP-1 octapeptide] | – | –
